In data set [1] the test system is tubulin. To be noted: cited from earlier work.
For data set [2], the system named is HeLa cells. Also noted: method as in PMID 27363663. Particulars: HeLa cells ref 15; cited from earlier work.
Data set [3] has as its system HeLa cells. Also on record: method as in PMID 27363663. Particulars: HeLa cells ref 15; cited from earlier work. The source holds these as a separate data set.
Another data set deals with MCF-7 cell line. Also noted: method as in PMID 27263437. Particulars: described earlier ref 16; cited from earlier work.
A further data set relates to A2780 cell line. Also noted: method as in PMID 27263437. To be noted: described earlier ref 16; cited from earlier work.
The next data set deals with tested cell lines. Also noted: method as in PMID 27263437. Particulars: described earlier ref 16; cited from earlier work.
Data set [4] concerns the target 17β-hydroxysteroid dehydrogenase 1, 17β-HSD1. To be noted: read-out: 17β-HSD1 inhibition IC50; cited from earlier work.
In the next data set the test system is steroid sulfatase, STS. Also noted: method as in PMID 30230387. To be noted: cited from earlier work.
For the next data set, the system named is OATP2B1. Also noted: method as in PMID 30498534. Particulars: read-out: OATP2B1 inhibition IC50; cited from earlier work.
Another data set concerns MDA-MB-231 cells. The data set is described as follows: MTT antiproliferative assay, MDA-MB-231. The format is cell-based, human. To be noted: Homo sapiens, MTT. As for the experimental part:
(§1) The antiproliferative properties of the newly synthesised triazoles (11a,b–15a,b) were determined on a panel of human adherent cancer cell lines of gynaecological origin. MCF-7 and MDA-MB-231 were isolated from breast cancers differing in biochemical background, while A2780 cells were isolated from ovarian cancer. The cancer selectivity of compound 12a was tested on the non-cancerous mouse embryo fibroblast cell line NIH/3T3. All cell lines were purchased from European Collection of Cell Cultures (ECCAC, Salisbury, UK). Cells were cultivated in minimal essential medium supplemented with 10% foetal bovine serum, 1% non-essential amino acids and an antibiotic–antimycotic mixture. All media and supplements were obtained from Lonza Group Ltd., Basel, Switzerland. Near-confluent cancer cells were seeded onto a 96-well microplate (5000 cells/well) and, after overnight standing, 200 µL new medium, containing the tested compounds at 10 and 30 µM, was added. After incubation for 72 h at 37 °C in humidified air containing 5% CO2, the living cells were assayed by the addition of 20 µL of 5 mg/ml 3-(4,5-dimethylthiazol-2-yl)-2,5-diphenyltetrazolium bromide (MTT) solution. MTT was converted by intact mitochondrial reductase and precipitated as purple crystals during a 4-h contact period. The medium was next removed and the precipitated formazan crystals were dissolved in 100 µL of DMSO during a 60-min period of shaking at 37 ^оC.
(§2) Finally, the reduced MTT was assayed at 545 nm, using a microplate reader utilising wells with untreated cells serving as control. […] All in vitro experiments were carried out on two microplates with at least five parallel wells. Stock solutions of the tested substances (10 mM) were prepared in DMSO. […] Cisplatin (Ebewe Pharma GmbH, Unterach, Austria) was used as positive control.

For a further data set, the system named is MCF-7 cells. The experiment in a line: MTT antiproliferative assay, MCF-7. Particulars: Homo sapiens, MCF7, MTT. Type of data set: cell-based, human. As for the experimental part: as §1, §2
The test system of data set [5] is tubulin. The data set is described as follows: cell-free in vitro tubulin polymerisation assay. Particulars: vs untreated control. The format is biochemical. As for the experimental part:
The effect of brominated triazole (12a) on tubulin polymerisation was tested with the HTS-Tubulin Polymerisation Assay Biochem Kit (Bio-Kasztel Ltd., Budapest, Hungary) according to the manufacturer’s recommendations. Briefly, 10 µl of a 0.125 or 0.25 mM solution of the test compound (12a) was placed on a prewarmed (37 °C), UV-transparent microplate. About 10 µl 10 µM paclitaxel and 10 µl General Tubulin Buffer were used as positive and negative control, respectively. 100 µl 3.0 mg/ml tubulin in 80 mM PIPES pH 6.9, 2 mM MgCl2, 0.5 mM EGTA, 1 mM GTP was added to each sample, and the microplate was immediately placed into a prewarmed (37 °C) UV-spectrophotometer (SpectoStarNano, BMG Labtech, Ortenberg, Germany) to start the recording reaction. A 60-min kinetic measurement protocol was applied to determine the absorbance of the reaction solution per minute at 340 nm. For the evaluation of the experimental data, the maximum reaction rate (Vmax: Δabsorbance/min) was calculated. Moving averages of absorbances determined at three consecutive timepoints were calculated and the highest difference between two succeeding moving averages was taken as the Vmax of the tested compound in the tubulin polymerisation reaction. Each sample was prepared in two parallels and the measurements were repeated twice. For statistical evaluation, Vmax data were analysed by the one-way ANOVA test with the Newmann–Keuls post-test by using Prism 4.01 software (GraphPad Software, San Diego, CA).

The next data set relates to A2780 cells. The experiment in a line: MTT antiproliferative assay, A2780. The format is cell-based, human. Particulars: Homo sapiens, MTT. As for the experimental part: as §1, §2
Data set [6] concerns non-cancerous mouse embryo fibroblast cell line NIH/3T3. The data set is described as follows: MTT assay for cancer selectivity, NIH/3T3. Type of data set: cell-based. As for the experimental part:
as §1, §2

Turning to `COc1cc2c(cc1O)CC[C@@H]1[C@@H]2CC[C@]2(C)[C@@H](O)CC[C@@H]12` [2-methoxyestradiol], in the data set with tubulin [1], the “effect on tubulin polymerisation” value is “inhibit tubulin polymerisation”.

As for `CCC[C@H]1[C@@H]2CCc3cc(OCc4cn(Cc5ccccc5)nn4)ccc3[C@H]2CC[C@]1(C)CO` [Compound 3], the cell cycle effect entry with HeLa cells [2] is “cell cycle arrest at G2/M”. For the same molecule, the “maximum rate of microtubule formation” value in the data set with tubulin [1] is listed as “significantly increases the maximum rate of microtubule formation”. Also, in the data set with HeLa cells [3], the migration and invasion result was “inhibits the migration and invasion”.

As for `C[C@@]12CC[C@@H]3c4ccc(OCc5cn(Cc6ccccc6)nn5)cc4CC[C@H]3[C@@H]1CCC2=O` [Compound 4a, 3-[{1-benzyl-1H-1,2,3-triazol-4-yl}methoxy]-13α-estra-1,3,5(10)-trien-17-one], the IC50 in the data set with MCF-7 cell line and in the data set with A2780 cell line was 500 to 600 nM in each case.

Turning to `CC(C)(C)c1ccc(Cn2cc(COc3ccc4c(c3)CC[C@@H]3[C@@H]4CC[C@@]4(C)C(=O)CC[C@@H]34)nn2)cc1` [Compound 4b, 3-[{1-(4-tert-butylbenzyl)-1H-1,2,3-triazol-4-yl}methoxy]-13α-estra-1,3,5(10)-trien-17-one], the “influence on the growth of the tested cell lines” value in the data set on tested cell lines is “did not have marked influence on the growth”.

Turning to `C[C@@]12CC[C@@H]3c4cc(Br)c(O)cc4CC[C@H]3[C@@H]1CCC2=O` [Compound 5], the IC50 in data set [4] is roughly 1000 nM.

With `C[C@@]12CC[C@@H]3c4ccc(O)c(Br)c4CC[C@H]3[C@@H]1CCC2=O` [Compound 6], the IC50 in [4] is roughly 1000 nM. Besides, the STS inhibition entry in the data set with steroid sulfatase, STS is “dual STS and 17β-HSD1 inhibition”.

For `CCOP(=O)(OCC)c1cc2c(cc1O)CC[C@@H]1[C@@H]2CC[C@@]2(C)C(=O)CC[C@@H]12` [Compound 7], the IC50 (in data set [4]; in the data set with OATP2B1) was 1000 to 2000 nM throughout.

On to `CCOP(=O)(OCC)c1cc2c(cc1OCc1ccccc1)CC[C@@H]1[C@@H]2CC[C@@]2(C)C(=O)CC[C@@H]12` [Compound 8], for which the IC50 in the data set on OATP2B1 is 200 nM.

Molecule `C[C@@]12CC[C@@H]3c4ccc(OCc5cn(Cc6ccccc6)nn5)c(Br)c4CC[C@H]3[C@@H]1CCC2=O` [Compound 12a, 3-[{1-benzyl-1H-1,2,3-triazol-4-yl}methoxy]-4-bromo-13α-estra-1,3,5(10)-trien-17-one] displayed a melting point of 188 to 190 °C. Further, the inhibition at 10 µM in the data set on MDA-MB-231 cells (MDA-MB-231, 10 µM, 72 h, read-out: Inhibition (%) ± SEM) amounted to 52.9 ± 1.32%. Also, the inhibition at 30 µM in the data set on MDA-MB-231 cells (MDA-MB-231, 30 µM, 72 h, read-out: Inhibition (%) ± SEM) worked out at 53.8 ± 2.43%. In addition, the IC50 in the data set on MDA-MB-231 cells (MDA-MB-231, 72 h, read-out: calculated IC50) was 8.8 µM. The inhibition at 10 µM in the data set with MCF-7 cells (MCF-7, 10 µM, 72 h, read-out: Inhibition (%) ± SEM) worked out at 42 ± 0.97%. Further, in the data set with MCF-7 cells (MCF-7, 30 µM, 72 h, read-out: Inhibition (%) ± SEM), the inhibition at 30 µM is 52.5 ± 0.94%. Besides, in the data set with MCF-7 cells (MCF-7, 72 h, read-out: calculated IC50), the IC50 is 12.7 µM. In the data set with tubulin [5] (125 µM test compound), the “maximum rate of tubulin polymerisation (Vmax)” value is on record as “increased”. Further, in the data set on tubulin [5] (250 µM test compound), the “maximum rate of tubulin polymerisation (Vmax)” value is on record as “increased by our test compound which was significant”. Moreover, in the data set with A2780 cells (A2780, 10 µM, 72 h, read-out: Inhibition (%) ± SEM), the inhibition at 10 µM turned out to be 93.16 ± 0.47%. For the same molecule, the inhibition at 30 µM in the data set with A2780 cells (A2780, 30 µM, 72 h, read-out: Inhibition (%) ± SEM) came out at 95.43 ± 0.42%. Further, the IC50 in the data set on A2780 cells (A2780, 72 h, read-out: calculated IC50) was 550 nM. Moreover, in [6] (NIH3T3, NIH/3T3, 10 µM, MTT, read-out: inhibition of cell growth), the inhibition at 10 µM stood at 28.7 ± 1.26%. Moreover, the inhibition at 30 µM in data set [6] (NIH3T3, NIH/3T3, 30 µM, MTT, read-out: inhibition of cell growth) was 37.9 ± 0.75%. This molecule showed an IC50 in data set [6] (NIH3T3, NIH/3T3, MTT) greater than 30 µM.

Turning to `CC(=O)O[C@H]1C(=O)[C@@]2(C)[C@H]([C@H](OC(=O)c3ccccc3)[C@]3(O)C[C@H](OC(=O)[C@H](O)[C@@H](NC(=O)c4ccccc4)c4ccccc4)C(C)=C1C3(C)C)[C@]1(OC(C)=O)CO[C@@H]1C[C@@H]2O` [Paclitaxel, reference compound], in the data set with tubulin [5] (10 µM paclitaxel, positive control), the “increase in Vmax” value is recorded as “threefold increase in Vmax”.
